In brackets after ≈: the same amount, converted by molar mass. Counter-ions that a name gives are not always drawn. Like-named read-outs stand apart in the source and are kept apart here.
Tests used:
[1] = Solubility in non-aqueous excipients (excess solid, HPLC of filtrate); type: physicochemical; conditions: room temperature, rotated up to 4 days; for solubility: thermodynamic from solid; for Solubility in Ethanol: excipient Ethanol; for Solubility in Transcutol P: excipient Transcutol P
Description: (§1) The solubility of Compound (1), as either Type A or the sodium salt form, was investigated in various non-aqueous solvents. The solutions were prepared by addition of excess Compound (1) to 0.25 ml to 1.0 ml of excipient in amber screw cap vials with Teflon lined caps. The samples were allowed to rotate at room temperature for up to 4 days. Sampling was done by centrifuging (14,000 rpm on the Eppendorf model 5415C table top centrifuge) and filtering through a 0.45 μm PVDF filter. The filtrate was subject to HPLC analysis for determining the solubility. HPLC analysis was conducted with an Agilent 1100 using gradient or isocratic conditions. Both methods used acetonitrile/water (each with 0.1% Trifluroacetic Acid) and an ACE C-18 stationary phase with column heating maintained at 40-45° C. The wavelength of detection was set at 220 nm or 264 nm. Wet solids were collected and analyzed for form change (stability) by XRPD.

[2] = Form change (stability) study of slurried solids by XRPD; type: physicochemical; conditions: slurried in either propylene glycol or ethanol, FIG. 5
Description: as §1
XRPD analyses for the form change studies were conducted on a Bruker AXS X-Ray Powder Diffractometer Model D8 Discover or D8 Advance, available from Bruker AXS, Inc. of Madison, Wis., using CuKα radiation. The tube power was set to either 40 kV and 40 mA or 40 kV and 30 mA. […]

[3] = system: HCV infection; experiment: Human clinical trials in HCV-infected patients; type: in vivo
[4] = molecular target: HCV NS3 serine protease (Hepatitis C virus genotype 1a, UniProt P27958); conditions: cited from earlier work
HCV NS3 serine protease, sequence (P27958 1658-1711): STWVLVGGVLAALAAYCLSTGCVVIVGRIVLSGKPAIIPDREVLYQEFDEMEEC
HCV NS3 serine protease, sequence (P27958 1027-1657): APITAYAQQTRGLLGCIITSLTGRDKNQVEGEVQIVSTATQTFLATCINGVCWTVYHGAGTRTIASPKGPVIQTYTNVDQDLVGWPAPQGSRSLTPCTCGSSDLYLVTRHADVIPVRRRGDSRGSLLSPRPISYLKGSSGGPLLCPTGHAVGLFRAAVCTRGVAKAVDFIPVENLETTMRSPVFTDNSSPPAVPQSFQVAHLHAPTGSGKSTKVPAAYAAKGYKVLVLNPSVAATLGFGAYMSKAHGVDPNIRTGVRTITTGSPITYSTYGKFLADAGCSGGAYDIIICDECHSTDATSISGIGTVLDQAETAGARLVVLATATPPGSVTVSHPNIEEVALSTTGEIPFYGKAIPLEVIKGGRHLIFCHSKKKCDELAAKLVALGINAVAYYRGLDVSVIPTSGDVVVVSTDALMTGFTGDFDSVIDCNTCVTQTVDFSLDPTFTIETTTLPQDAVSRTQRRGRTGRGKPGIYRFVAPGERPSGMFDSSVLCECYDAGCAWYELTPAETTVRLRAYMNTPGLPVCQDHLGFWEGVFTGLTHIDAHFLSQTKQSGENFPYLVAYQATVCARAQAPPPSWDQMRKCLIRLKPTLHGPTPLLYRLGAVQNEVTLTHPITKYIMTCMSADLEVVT

| SMILES | solubility ([1]; Capmul MCM (non-aqueous excipient), oil or lipid, excipient Capmul MCM, read-out: Solubility in Capmul MCM) [mg/mL] | solubility ([1]; Capmul PG8 (non-aqueous excipient), oil or lipid, excipient Capmul PG8, read-out: Solubility in Capmul PG8) [mg/mL] | solubility ([1]; Labrasol (non-aqueous excipient), oil or lipid, excipient Labrasol, read-out: Solubility in Labrasol) [mg/mL] | solubility ([1]; PEG 400 (non-aqueous excipient), organic solvent or mixture, excipient PEG 400, read-out: Solubility in PEG 400) [mg/mL] | solubility ([1]; Propylene Glycol (non-aqueous excipient), organic solvent or mixture, excipient Propylene Glycol, read-out: Solubility in Propylene Glycol) [mg/mL] | Solubility in Ethanol [1] [mg/mL] | Solubility in Transcutol P [1] [mg/mL] | Form stability (change in XRPD pattern of remaining solid) ([2]; listed as crystalline sodium salt form of Compound (1)) | Effectiveness in treating HCV-infected patients [3] | Inhibitory activity against HCV NS3 serine protease [4] | Solubility in Capmul MCM ([1]; excipient Capmul MCM) [mg/mL] | Solubility in Capmul PG8 ([1]; excipient Capmul PG8) [mg/mL] | Solubility in Labrasol ([1]; excipient Labrasol) [mg/mL] | Solubility in PEG 400 ([1]; excipient PEG 400) [mg/mL] | Form stability (change in XRPD pattern of remaining solid) ([2]; listed as Type A form of Compound (1)) |
| --- | --- | --- | --- | --- | --- | --- | --- | --- | --- | --- | --- | --- | --- | --- | --- |
| C=C[C@@H]1C[C@]1(NC(=O)[C@@H]1C[C@@H](Oc2cc(-c3csc(NC(=O)C(C)C)n3)nc3c(Br)c(OC)ccc23)CN1C(=O)[C@@H](NC(=O)OC1CCCC1)C(C)(C)C)C(=O)O [Compound (1) Na salt] | 262.5 ± 2.6 | < 169 | 175 ± 11.8 | 234 ± 34 | > 468 | 187.0 ± 23.9 | 430.6 ± 14.7 | no change in the XRPD pattern | demonstrated effectiveness | – | – | – | – | – | – |
| C=C[C@@H]1C[C@]1(NC(=O)[C@@H]1C[C@@H](Oc2cc(-c3csc(NC(=O)C(C)C)n3)nc3c(Br)c(OC)ccc23)CN1C(=O)[C@@H](NC(=O)OC1CCCC1)C(C)(C)C)C(=O)O [Compound (1)] | – | – | – | – | – | – | – | – | – | selective and potent inhibitor | – | – | – | – | – |
| C=C[C@@H]1C[C@]1(NC(=O)[C@@H]1C[C@@H](Oc2cc(-c3csc(NC(=O)C(C)C)n3)nc3c(Br)c(OC)ccc23)CN1C(=O)[C@@H](NC(=O)OC1CCCC1)C(C)(C)C)C(=O)O [Type A of Compound (1)] | – | – | – | – | – | 0.9 ± 0.1 (≈ 1.03 mM) | 24.3 ± 0.3 (≈ 27.9 mM) | – | – | – | 220.6 ± 7.4 (≈ 254 mM) | 172.6 ± 8.3 (≈ 198 mM) | 146.7 ± 5.1 (≈ 169 mM) | 136.8 ± 3.2 (≈ 157 mM) | clear form change |
